Assay results published in ChEMBL document CHEMBL5226325, “Optimization of a Screening Hit toward M2912, an Oral Tankyrase Inhibitor with Antitumor Activity in Colorectal Cancer Models” (J Med Chem, 2021).
Active and inactive are the calls of the source. No cut-off for these calls is given here.

Tests used:
[1] = Unbound fraction in rat plasma; format: ADME, cell-free
[2] = Hepatic blood flow in rat; format: ADME
SW480 = experiment: Cytotoxicity against human SW480 cells assessed as reduction in cell growth at 0.01 to 10 uM incubated for 14 days by resazurin dye based assay; format: functional; settings: dose 0.01-10 µM, time 14.0 day
[3] = molecular target: Protein mono-ADP-ribosyltransferase PARP10 (Homo sapiens, UniProt Q53GL7); experiment: Inhibition of human PARP10 by chemiluminescence assay
[4] = molecular target: Poly [ADP-ribose] polymerase 1 (Homo sapiens, UniProt P09874); experiment: Inhibition of PARP-1 (unknown origin) using biotinylated NAD and NAD as substrate assessed as inhibition of auto-PARsylation incubated for 150 mins by TR-FRET assay
Chain of Poly [ADP-ribose] polymerase 1 (P09874 whole entry): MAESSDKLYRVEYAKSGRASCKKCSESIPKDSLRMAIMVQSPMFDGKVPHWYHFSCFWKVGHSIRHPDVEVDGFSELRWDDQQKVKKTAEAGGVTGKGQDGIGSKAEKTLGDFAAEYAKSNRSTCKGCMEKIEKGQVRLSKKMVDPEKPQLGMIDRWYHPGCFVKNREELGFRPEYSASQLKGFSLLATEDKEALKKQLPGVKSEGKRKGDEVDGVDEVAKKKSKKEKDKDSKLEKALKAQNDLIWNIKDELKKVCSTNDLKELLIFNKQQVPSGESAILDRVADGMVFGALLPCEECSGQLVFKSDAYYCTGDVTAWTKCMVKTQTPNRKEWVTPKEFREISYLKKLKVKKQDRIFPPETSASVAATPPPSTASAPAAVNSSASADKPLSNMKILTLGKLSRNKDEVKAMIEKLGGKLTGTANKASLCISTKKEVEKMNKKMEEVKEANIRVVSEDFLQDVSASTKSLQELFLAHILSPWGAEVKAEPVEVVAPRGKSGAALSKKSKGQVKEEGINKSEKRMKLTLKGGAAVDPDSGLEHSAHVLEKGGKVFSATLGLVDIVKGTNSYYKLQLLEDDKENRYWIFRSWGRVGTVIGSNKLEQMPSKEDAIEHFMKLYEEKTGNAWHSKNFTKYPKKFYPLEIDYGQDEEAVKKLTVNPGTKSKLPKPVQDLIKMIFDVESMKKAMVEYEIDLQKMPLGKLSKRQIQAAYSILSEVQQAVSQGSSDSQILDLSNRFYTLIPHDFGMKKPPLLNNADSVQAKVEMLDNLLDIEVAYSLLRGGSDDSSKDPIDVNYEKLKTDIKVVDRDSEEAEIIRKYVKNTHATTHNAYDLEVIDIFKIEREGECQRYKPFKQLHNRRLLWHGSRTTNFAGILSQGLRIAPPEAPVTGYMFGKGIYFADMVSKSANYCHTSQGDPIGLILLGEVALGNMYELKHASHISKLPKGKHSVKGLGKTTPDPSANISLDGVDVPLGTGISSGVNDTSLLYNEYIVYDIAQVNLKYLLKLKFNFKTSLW

[5] = Toxicity in mouse assessed as histopathological changes in gastrointestinal tract at 50 mg/kg, po administered twice daily via gavage; format: organism-based; settings: in vivo
[6] = molecular target: Poly [ADP-ribose] polymerase tankyrase-1 (Homo sapiens) (UniProt O95271); experiment: Inhibition of tankyrase-mediated auto-PARsylation in human DLD-1 cells assessed as increase in tankyrase accumulation incubated for 24 hrs; format: cell-based
Chain of Poly [ADP-ribose] polymerase tankyrase-1 (Homo sapiens) (O95271 whole entry): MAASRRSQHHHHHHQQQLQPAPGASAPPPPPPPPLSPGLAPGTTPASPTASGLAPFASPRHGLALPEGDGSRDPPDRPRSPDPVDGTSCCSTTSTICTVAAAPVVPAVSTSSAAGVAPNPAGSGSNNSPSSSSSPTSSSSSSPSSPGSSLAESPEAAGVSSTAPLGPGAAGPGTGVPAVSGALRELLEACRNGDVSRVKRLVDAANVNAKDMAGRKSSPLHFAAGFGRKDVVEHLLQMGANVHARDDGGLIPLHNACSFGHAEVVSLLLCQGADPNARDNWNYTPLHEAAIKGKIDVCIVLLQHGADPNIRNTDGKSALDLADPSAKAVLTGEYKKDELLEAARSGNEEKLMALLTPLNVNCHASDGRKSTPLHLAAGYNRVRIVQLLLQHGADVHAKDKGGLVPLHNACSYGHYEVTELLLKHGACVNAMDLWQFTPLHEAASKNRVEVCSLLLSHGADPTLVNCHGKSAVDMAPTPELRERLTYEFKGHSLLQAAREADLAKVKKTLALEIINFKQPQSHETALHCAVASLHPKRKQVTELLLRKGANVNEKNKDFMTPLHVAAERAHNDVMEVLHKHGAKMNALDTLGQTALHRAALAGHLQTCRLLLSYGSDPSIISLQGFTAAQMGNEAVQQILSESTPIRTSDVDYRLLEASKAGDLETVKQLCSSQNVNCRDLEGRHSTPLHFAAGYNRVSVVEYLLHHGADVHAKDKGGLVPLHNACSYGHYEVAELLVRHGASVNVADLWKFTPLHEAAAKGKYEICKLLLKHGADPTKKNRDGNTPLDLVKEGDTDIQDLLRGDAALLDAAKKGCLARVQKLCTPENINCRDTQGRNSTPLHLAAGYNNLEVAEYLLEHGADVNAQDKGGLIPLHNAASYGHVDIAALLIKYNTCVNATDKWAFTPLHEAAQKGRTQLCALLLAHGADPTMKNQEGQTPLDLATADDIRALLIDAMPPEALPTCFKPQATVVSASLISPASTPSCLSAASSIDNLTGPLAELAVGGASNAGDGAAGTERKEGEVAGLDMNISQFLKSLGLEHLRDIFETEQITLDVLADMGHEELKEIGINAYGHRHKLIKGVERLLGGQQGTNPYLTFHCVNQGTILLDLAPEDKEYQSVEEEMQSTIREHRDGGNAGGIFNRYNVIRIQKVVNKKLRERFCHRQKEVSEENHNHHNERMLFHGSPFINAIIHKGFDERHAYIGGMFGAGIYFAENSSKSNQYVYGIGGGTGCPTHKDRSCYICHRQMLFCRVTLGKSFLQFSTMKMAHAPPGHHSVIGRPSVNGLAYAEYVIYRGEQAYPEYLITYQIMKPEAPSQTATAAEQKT

[7] = In vivo inhibition of Wnt pathway in Hsd athymic nude mouse xenografted with human DLD1 cells assessed as increase in tankyrase protein level in tumor at 10 to 30 mg/kg, po administered as single dose and measured after 2 to 8 hrs; format: functional, organism-based; settings: DLD-1, dose 10-30 mg/kg, time 2-8 hrs
[8] = Toxicity in CD-1 nude mouse xenografted with human HT55 cells assessed as drug tolerance at 15 mg/kg, po administered twice daily via gavage for 20 days; format: organism-based; settings: in vivo, 480 h, time 20 day
[9] = In vivo inhibition of Wnt pathway in Hsd athymic nude mouse xenografted with human DLD1 cells assessed as increase in axin2 protein level in tumor at 10 to 30 mg/kg, po administered as single dose and measured after 18 hrs; format: functional, organism-based; settings: DLD-1, dose 10-30 mg/kg
[10] = Hepatic blood flow in dog; format: ADME, Canis lupus familiaris
[11] = Unbound fraction in monkey plasma; format: ADME, cell-free, Macaca mulatta; settings: rhesus monkey
[12] = Half life in dog; format: ADME, Canis lupus familiaris; settings: in vivo
[13] = Half life in rat; format: ADME; settings: in vivo
[14] = Toxicity in […] xenografted with human HT55 cells assessed as reduction in body weight at 20 mg/kg, po administered twice daily via gavage for 20 days and measured twice weekly; format: organism-based; settings: in vivo, 480 h, time 20 day
[15] = Unbound fraction in mouse plasma; format: ADME, cell-free
COLO 320 [16] = experiment: Cytotoxicity against human COLO 320 cells assessed as reduction in cell growth incubated for 14 days by resazurin dye based assay; format: functional; settings: time 14.0 day
SW-620 = experiment: Cytotoxicity against human SW620 cells assessed as reduction in cell growth at 0.01 to 10 uM incubated for 14 days by resazurin dye based assay; format: functional; settings: dose 0.01-10 µM, time 14.0 day
DLD-1 = experiment: Cytotoxicity against human DLD-1 cells assessed as reduction in cell growth at 0.01 to 10 uM incubated for 14 days by resazurin dye based assay; format: functional; settings: dose 0.01-10 µM, time 14.0 day
[17] = Toxicity in CB17-SCID mouse xenografted with human COLO 320 cells assessed as drug tolerance at 15 mg/kg, po administered twice daily via gavage for 20 days; format: organism-based; settings: in vivo, 480 h, time 20 day
[18] = Hepatic blood flow in monkey; format: ADME, Macaca mulatta; settings: rhesus monkey
[19] = In vivo inhibition of Wnt pathway in Hsd athymic nude mouse xenografted with human DLD1 cells assessed as increase in axin2 protein level in tumor at 10 to 30 mg/kg, po administered as single dose and measured after 2 to 8 hrs; format: functional, organism-based; settings: DLD-1, dose 10-30 mg/kg, time 2-8 hrs
[20] = Oral bioavailability in monkey; format: ADME, organism-based, Macaca mulatta; settings: rhesus monkey, in vivo
[21] = molecular target: Protein mono-ADP-ribosyltransferase PARP8 (Homo sapiens, UniProt Q8N3A8); experiment: Inhibition of human PARP8 by chemiluminescence assay
[22] = In vivo inhibition of Wnt pathway in Hsd athymic nude mouse xenografted with human DLD1 cells assessed as increase in tankyrase protein level in tumor at 10 to 30 mg/kg, po administered as single dose and measured after 18 hrs; format: functional, organism-based; settings: DLD-1, dose 10-30 mg/kg
HT55 [23] = experiment: Cytotoxicity against human HT55 cells assessed as reduction in cell growth incubated for 14 days by resazurin dye based assay; format: functional; settings: time 14.0 day
HT55 [24] = experiment: Antitumor activity against human HT55 cells xenografted in CD-1 nude mouse assessed as tumor growth inhibition at 20 mg/kg, po, administered twice daily via gavage and measured twice weekly; format: functional, organism-based
[25] = Hepatic blood flow in human; format: ADME
[26] = In vivo inhibition of Wnt pathway in Hsd athymic nude mouse xenografted with human DLD1 cells assessed as reduction in beta-catenin level in tumor at 10 to 30 mg/kg, po administered as single dose and measured after 8 hrs; format: functional, organism-based; settings: DLD-1, dose 10-30 mg/kg
[27] = Volume of distribution at steady state in monkey; format: ADME, Macaca mulatta; settings: rhesus monkey, in vivo; read-out: Vdss
[28] = molecular target: Protein mono-ADP-ribosyltransferase PARP15 (Homo sapiens, UniProt Q460N3); experiment: Inhibition of N-terminal GST-tagged human recombinant PARP15 (221 to 444 residues) expressed in Escherichia coli by chemiluminescence assay
Chain of Protein mono-ADP-ribosyltransferase PARP15 (Q460N3 whole entry, looked up, the tested form may be a part): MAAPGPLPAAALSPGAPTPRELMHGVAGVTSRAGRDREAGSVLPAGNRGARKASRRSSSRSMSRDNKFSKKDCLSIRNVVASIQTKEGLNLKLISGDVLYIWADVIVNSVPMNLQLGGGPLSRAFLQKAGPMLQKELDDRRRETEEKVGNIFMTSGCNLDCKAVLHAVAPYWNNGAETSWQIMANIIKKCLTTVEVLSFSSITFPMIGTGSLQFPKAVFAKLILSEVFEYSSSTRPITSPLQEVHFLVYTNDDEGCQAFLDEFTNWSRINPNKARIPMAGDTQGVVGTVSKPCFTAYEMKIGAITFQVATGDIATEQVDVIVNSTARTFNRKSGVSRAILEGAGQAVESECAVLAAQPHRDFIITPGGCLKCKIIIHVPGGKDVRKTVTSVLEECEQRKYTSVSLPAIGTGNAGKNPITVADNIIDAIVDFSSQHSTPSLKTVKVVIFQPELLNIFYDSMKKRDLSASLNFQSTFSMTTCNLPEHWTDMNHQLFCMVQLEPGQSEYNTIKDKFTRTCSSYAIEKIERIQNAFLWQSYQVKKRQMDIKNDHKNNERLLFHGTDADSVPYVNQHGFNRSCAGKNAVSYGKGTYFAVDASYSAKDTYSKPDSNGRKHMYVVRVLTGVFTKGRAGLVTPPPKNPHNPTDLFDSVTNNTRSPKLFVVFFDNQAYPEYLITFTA

[29] = Half life in human; format: ADME
[30] = molecular target: Protein mono-ADP-ribosyltransferase PARP3 (Homo sapiens, UniProt Q9Y6F1); experiment: Inhibition of N-terminal GST-fused human recombinant PARP3 (2 to 540 residues) expressed in Sf9 insect cells by chemiluminescence assay
Chain of Protein mono-ADP-ribosyltransferase PARP3 (Q9Y6F1 whole entry, the tested form may be a part): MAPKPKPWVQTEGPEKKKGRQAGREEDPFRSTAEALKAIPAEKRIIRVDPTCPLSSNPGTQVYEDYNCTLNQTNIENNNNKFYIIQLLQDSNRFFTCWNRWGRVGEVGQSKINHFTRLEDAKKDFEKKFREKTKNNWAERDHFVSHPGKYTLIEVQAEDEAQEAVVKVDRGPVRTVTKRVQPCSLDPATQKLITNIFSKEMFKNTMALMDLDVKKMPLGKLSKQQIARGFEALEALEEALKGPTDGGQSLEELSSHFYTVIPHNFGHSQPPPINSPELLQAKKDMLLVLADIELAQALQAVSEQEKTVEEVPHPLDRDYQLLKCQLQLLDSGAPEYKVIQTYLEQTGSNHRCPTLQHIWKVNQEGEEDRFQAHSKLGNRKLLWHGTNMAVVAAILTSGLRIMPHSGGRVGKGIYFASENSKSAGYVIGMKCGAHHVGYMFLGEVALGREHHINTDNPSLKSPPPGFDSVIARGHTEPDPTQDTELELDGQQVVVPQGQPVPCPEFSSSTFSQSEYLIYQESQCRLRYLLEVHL

COLO 320 [31] = experiment: Antitumor activity against human COLO 320 cells xenografted in CB17-SCID mouse assessed as tumor growth inhibition at 20 mg/kg, po, administered twice daily via gavage and measured twice weekly; format: functional, organism-based
[32] = molecular target: Sodium-dependent dopamine transporter (Homo sapiens, UniProt Q01959); experiment: Inhibition of dopamine transporter (unknown origin); format: toxicity
Chain of Sodium-dependent dopamine transporter (Q01959 whole entry): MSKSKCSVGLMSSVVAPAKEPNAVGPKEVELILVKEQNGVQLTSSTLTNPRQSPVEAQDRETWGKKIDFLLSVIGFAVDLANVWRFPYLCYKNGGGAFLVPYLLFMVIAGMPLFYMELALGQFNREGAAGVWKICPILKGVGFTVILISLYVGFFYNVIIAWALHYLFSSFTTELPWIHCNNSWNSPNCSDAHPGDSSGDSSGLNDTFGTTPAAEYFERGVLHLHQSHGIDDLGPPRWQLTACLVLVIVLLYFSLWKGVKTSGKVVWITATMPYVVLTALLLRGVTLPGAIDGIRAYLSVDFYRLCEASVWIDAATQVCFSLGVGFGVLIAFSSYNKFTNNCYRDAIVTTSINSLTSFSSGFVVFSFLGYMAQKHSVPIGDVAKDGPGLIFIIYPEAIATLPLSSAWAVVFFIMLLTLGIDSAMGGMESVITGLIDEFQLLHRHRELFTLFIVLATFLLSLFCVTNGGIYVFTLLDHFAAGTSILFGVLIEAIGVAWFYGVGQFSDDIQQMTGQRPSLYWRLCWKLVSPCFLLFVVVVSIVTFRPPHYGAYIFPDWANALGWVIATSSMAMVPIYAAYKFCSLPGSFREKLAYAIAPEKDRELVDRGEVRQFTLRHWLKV

[33] = Volume of distribution at steady state in rat; format: ADME; settings: in vivo, read-out: Vdss
[34] = molecular target: Protein mono-ADP-ribosyltransferase TIPARP (Homo sapiens, UniProt Q7Z3E1); experiment: Inhibition of N-terminal FLAG-tagged human recombinant PARP7 (400 to 657 residues) expressed in Sf9 insect cells by chemiluminescence assay
Chain of Protein mono-ADP-ribosyltransferase TIPARP (Q7Z3E1 whole entry, the tested form may be a part): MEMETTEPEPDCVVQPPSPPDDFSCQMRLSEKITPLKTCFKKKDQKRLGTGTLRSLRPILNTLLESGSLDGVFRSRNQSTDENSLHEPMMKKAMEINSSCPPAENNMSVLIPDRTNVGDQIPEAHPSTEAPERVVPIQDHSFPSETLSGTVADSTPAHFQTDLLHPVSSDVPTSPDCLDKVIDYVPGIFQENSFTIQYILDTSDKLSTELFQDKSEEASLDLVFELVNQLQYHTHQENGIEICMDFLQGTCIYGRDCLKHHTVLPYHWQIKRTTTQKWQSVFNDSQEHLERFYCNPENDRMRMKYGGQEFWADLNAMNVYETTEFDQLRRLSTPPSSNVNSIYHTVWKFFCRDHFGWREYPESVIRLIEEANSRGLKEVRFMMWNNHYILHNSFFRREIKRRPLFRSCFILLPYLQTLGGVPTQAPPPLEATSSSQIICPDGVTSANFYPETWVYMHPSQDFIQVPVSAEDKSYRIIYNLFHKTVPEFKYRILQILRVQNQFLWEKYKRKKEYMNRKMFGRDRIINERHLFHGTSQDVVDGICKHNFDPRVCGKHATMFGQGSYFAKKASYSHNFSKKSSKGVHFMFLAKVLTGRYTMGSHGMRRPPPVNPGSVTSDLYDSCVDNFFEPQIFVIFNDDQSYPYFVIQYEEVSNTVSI

[35] = Half life in monkey; format: ADME, Macaca mulatta; settings: rhesus monkey, in vivo

- fraction unbound [1]: 0.13
- QH [2]: 56%
- IC50 [3]: 2.9 µM
- IC50 [4]: 0.928 µM
- inhibition [6]: Active
- QH [10]: 130%
- fraction unbound [11]: 0.21
- half-life [12]: 35.6 min
- half-life [13]: 20.4 min
- fraction unbound [15]: 0.16
- QH [18]: 99%
- bioavailability [20]: 6.7%
- IC50 [21]: 1.3 µM
- QH [25]: 17%
- Vd [27]: 3.15 L/kg
- IC50 [28]: > 10 µM
- half-life [29]: 414 min
- IC50 [30]: 0.11 µM
- Vd [33]: 0.91 L/kg
- IC50 [34]: 0.33 µM
- half-life [35]: 60.6 min
SMILES: Cc1ccc2c(=O)[nH]c(-c3ccc(C(C)(C)O)cc3)cn12
- Activity (SW480): inactive
- Activity [5]: Toxic
- inhibition [7]: Active
- Activity [8]: Non-Toxic
- inhibition [9]: inactive
- Activity [14]: Non-Toxic
- Activity (COLO 320 [16]): Dose-Dependent Effect
- Activity (SW-620): inactive
- Activity (DLD-1): inactive
- Activity [17]: Non-Toxic
- inhibition [19]: Active
- inhibition [22]: inactive
- Activity (HT55 [23]): Dose-Dependent Effect
- Activity (HT55 [24]): Active
- inhibition [26]: Active
- Activity (COLO 320 [31]): Active
- IC50 [32]: 19 µM
